Where no end group is shown, it is not given here.
Key:
[1] = test system: U87 cells
Description: Cell proliferation was analyzed with the CellTiter 96® Aqueous Non-Radioactive Cell Proliferation Assay (MTS) (Promega Biotech AB, Stockholm, Sweden) according to the manufacturer’s instructions. For this 1 × 10^5 U87 cells were seeded one day prior to the experiment on a transparent 96-well plate. On the experiment day, the media was replaced with 90 μL of fresh serum free or serum (10% FBS) containing media and to the wells, the peptides at the concentration range of 0–20 µM were added. The absorbance of formazan product was measured 20 h post-addition of peptides at 490 nm with Tecan Sunrise microplate absorbance reader (Tecan Group Ltd., Stockholm, Sweden). […] Additional background controls: MTS–reagent and media, without cells, Media–cells with only media and without reagent.

[2] = test system: Aβ1–42-GFP fusion protein expressed in U87 cells; assay: Reduction in expressed Aβ1–42-GFP aggregation, flow cytometry; format: cell-based, human; conditions: control inhibitor

Row | Molecule | peptide concentration at which cell viability is reduced (MTS) in serum free media [1] | reduction in the viability of cells (MTS) in serum free media [1] | green signal in Aβ42–EGFP expressing cells after known Aβ inhibitor [2]
1 | MANLGYWLLALFVTMWTDVGLCKKRPKP-NH2 [PrP1–28] | 2.5 µM | over 20% | 
2 | O=S1(=O)OC(c2ccc(O)cc2)(c2ccc(O)cc2)c2ccccc21 [phenol red] |  |  | significantly increased the green signal
3 | MLRTKDLIWTLFFLGTAVSKKRPKP-NH2 [NCAM1_1–19PrP23–28] | 20 µM |  | 
